Measured values published in paper PMC7937589 (Drugs in R&D, 2020).

Tests used:
solid tumors = assay: Antitumor activity, overall response by RECIST v1.1; type: in vivo, human; conditions: for Partial response rate: across all treatment cycles
[1] = test system: advanced solid malignancies; conditions: US study, patients with ALK-positive tumors, especially NSCLC; cited from earlier work
[2] = Plasma and urine pharmacokinetics of ASP3026; type: in vivo, human; conditions: for Tmax: human, plasma, oral
[3] = test system: Japanese patients with solid tumors; type: in vivo, human
[4] = Japanese patients, oral once daily

COc1cc(N2CCC(N3CCN(C)CC3)CC2)ccc1Nc1ncnc(Nc2ccccc2S(=O)(=O)C(C)C)n1 [ASP3026]
Partial response (solid tumors; Cycle 1, 200 mg daily, escalation (n = 3) and expansion (n = 6) cohorts): none of the patients | Patients with stable disease (solid tumors; Cycle 1, 200 mg daily, escalation cohort (n = 3)): three | Patients with stable disease (solid tumors; Cycle 1, 200 mg daily, expansion cohort (n = 6)): three | Partial response rate (solid tumors; 75-mg dose group (1/3)): 33.3% | Partial response rate (solid tumors; 125-mg dose group (1/4)): 25.0% | Patients achieving partial response (PR) [1]: Half of the patients | Dose dependence of median Cmax and AUC24h ([2]; 25 mg to 325 mg, Day 1 and Day 28, escalation cohort): increased in a dose-dependent manner | Tmax ([2]; Mean tmax across the dose groups, Day 1): 2.12 to 4.52 h | Tmax ([2]; Mean tmax across the dose groups, Day 28): 2.48 to 3.75 h | Tmax ([2]; Median tmax across the dose groups, Day 1): 1.97 to 3.97 h | Tmax ([2]; Median tmax across the dose groups, Day 28): 2.48 to 3 h | Steady state achieved ([2]; once daily oral dosing): ≤ 8 days | Patients with dose-limiting toxicity (DLT) ([3]; 325 mg daily, Cycle 1, six patients evaluated): Three | Maximum tolerated dose (MTD) [3, 4]: 200 mg | Recommended phase II dose (RP2D) [3, 4]: 200 mg | Total incidence of Grade 4 TEAEs ([3]; all cohorts (1/29)): 3.4% | Total incidence of Grade 5 TEAEs ([3]; all cohorts (1/29)): 3.4% | Patients reporting eye disorders ([3]; all cohorts (4/29)): 13.8% | Total incidence of Grade 1 TEAEs ([3]; all cohorts (6/29)): 20.7% | Total incidence of Grade 2 TEAEs ([3]; all cohorts (8/29)): 27.6% | Total incidence of Grade 3 TEAEs ([3]; all cohorts (13/29)): 44.8% | Overall incidence of drug-related AEs ([3]; all cohorts (24/29)): 82.8% | Incidence of TEAEs ([3]; all treatment groups (29/29)): 100% | Dose-limiting toxicity (DLT) ([3]; daily dose from 25 mg to 200 mg, Cycle 1): No DLT was observed
